# Results taken from ChEMBL document CHEMBL1240344, “Phage-encoded combinatorial chemical libraries based on bicyclic peptides” (Nat Chem Biol, 2009).
# Starred links: 1 amine or outer side, 2 acyl side, 3 side chain; linkers in the order of their positions; H or OH if unused. Positions of bridges follow the written chain, without caps; N, C: chain ends. Residues, ends and D or L forms follow the SMILES beside them. TBMB = c1c(C[*:1])cc(C[*:3])cc1C[*:2]
# Target: Plasma kallikrein (Homo sapiens, UniProt P03952)
# Sequence (P03952 20-390 limits assumed): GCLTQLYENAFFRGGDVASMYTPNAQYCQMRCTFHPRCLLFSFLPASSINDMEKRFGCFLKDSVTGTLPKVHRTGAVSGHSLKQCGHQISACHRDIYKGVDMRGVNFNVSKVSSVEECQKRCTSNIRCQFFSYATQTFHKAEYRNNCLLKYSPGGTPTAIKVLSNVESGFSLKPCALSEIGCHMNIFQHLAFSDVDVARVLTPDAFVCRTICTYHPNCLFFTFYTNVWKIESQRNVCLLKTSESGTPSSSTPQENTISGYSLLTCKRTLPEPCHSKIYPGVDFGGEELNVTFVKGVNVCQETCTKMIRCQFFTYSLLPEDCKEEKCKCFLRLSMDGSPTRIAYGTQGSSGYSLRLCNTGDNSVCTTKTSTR
# Sequence (P03952 391-638 limits assumed): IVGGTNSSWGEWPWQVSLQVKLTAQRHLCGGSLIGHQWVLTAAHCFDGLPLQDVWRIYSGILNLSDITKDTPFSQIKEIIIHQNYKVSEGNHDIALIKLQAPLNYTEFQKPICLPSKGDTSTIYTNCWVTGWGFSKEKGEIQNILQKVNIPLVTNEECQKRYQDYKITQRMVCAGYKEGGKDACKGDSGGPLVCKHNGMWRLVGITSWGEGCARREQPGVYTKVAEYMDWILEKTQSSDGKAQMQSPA
# Assay: Inhibition of human plasma kallikrein using Z-Phe-Arg-AMC substrate after 30 mins by spectrophotometric assay
row,SMILES,IC50 [nM]
1,"CC(C)[C@@H]1NC(=O)[C@@H](NC(=O)[C@H](C)N)CSCc2cc3cc(c2)CSC[C@@H](C(=O)NCC(N)=O)NC(=O)[C@H](C(C)O)NC(=O)[C@H](C(C)C)NC(=O)[C@H](Cc2c[nH]c4ccccc24)NC(=O)[C@H](CC(N)=O)NC(=O)[C@H](C(C)C)NC(=O)[C@H](CCCNC(=N)N)NC(=O)[C@H](CSC3)NC(=O)[C@H](Cc2ccc(O)cc2)NC(=O)[C@H](CC(N)=O)NC(=O)[C@H](Cc2cnc[nH]2)NC1=O (single isomer, unassigned)",1800
2,CC(C)[C@H](NC(=O)[C@H](CCCN=C(N)N)NC(=O)[C@H](CS)NC(=O)[C@H](CCCN=C(N)N)NC(=O)CNC(=O)[C@H](CCC(=O)O)NC(=O)CNC(=O)[C@@H](NC(=O)CNC(=O)[C@H](CS)NC(=O)[C@H](C)N)[C@@H](C)O)C(=O)N[C@@H](CC(N)=O)C(=O)N[C@@H](Cc1c[nH]c2ccccc12)C(=O)N[C@H](C(=O)N1CCC[C@H]1C(=O)N[C@@H](CS)C(=O)NCC(N)=O)[C@@H](C)O,> 10000
3,CSCC[C@@H]1NC(=O)[C@H](CO)NC(=O)[C@H](Cc2c[nH]c3ccccc23)NC(=O)[C@@H]2CCCN2C(=O)[C@@H]2CSCc3cc(cc(c3)CSC[C@H](NC(=O)[C@H](C)N)C(=O)N[C@@H](CC(=O)O)C(=O)N[C@@H](CO)C(=O)N[C@@H](CCCNC(=N)N)C(=O)N[C@@H](Cc3ccccc3)C(=O)N[C@@H](CCCNC(=N)N)C(=O)N[C@@H](CC(N)=O)C(=O)N2)CSC[C@@H](C(=O)NCC(N)=O)NC(=O)CNC(=O)[C@H](CO)NC1=O (H-ACDSRFRNCPWSMSGCG-NH2; linker 2-9-16 via TBMB),1500
4,CC(C)[C@@H]1NC(=O)[C@H](CCCNC(=N)N)NC(=O)[C@@H]2CSCc3cc(cc(c3)CSC[C@@H](C(=O)NCC(N)=O)NC(=O)[C@H](CCCCN)NC(=O)CNC(=O)[C@H](Cc3ccccc3)NC(=O)[C@H](CC(N)=O)NC1=O)CSC[C@H](NC(=O)[C@H](C)N)C(=O)N[C@@H](Cc1c[nH]c3ccccc13)C(=O)N[C@@H](CCC(N)=O)C(=O)N[C@@H](C(C)C)C(=O)N[C@@H](CCC(N)=O)C(=O)N[C@@H](C(C)C)C(=O)N[C@@H](CC(N)=O)C(=O)N2 (H-ACWQVQVNCRVNFGKCG-NH2; linker 2-9-16 via TBMB),800
5,CC(C)[C@@H]1NC(=O)[C@H](CCCNC(=N)N)NC(=O)[C@@H]2CSCc3cc(cc(c3)CSC[C@@H](C(=O)NCC(N)=O)NC(=O)[C@@H]3CCCN3C(=O)[C@H]([C@H](C)O)NC(=O)[C@H](Cc3c[nH]c4ccccc34)NC(=O)[C@H](CC(N)=O)NC1=O)CSC[C@H](NC(=O)[C@H](C)N)C(=O)NCC(=O)N[C@@H]([C@H](C)O)C(=O)NCC(=O)N[C@@H](CCC(=O)O)C(=O)NCC(=O)N[C@@H](CCCNC(=N)N)C(=O)N2,39.1
6,CC(C)[C@@H]1NC(=O)[C@@H]2CCCN2C(=O)[C@@H]2CSCc3cc(cc(c3)CSC[C@@H](C(=O)NCC(N)=O)NC(=O)[C@H](C)NC(=O)[C@H](CO)NC(=O)[C@H](CCC(=O)O)NC(=O)[C@H](CO)NC1=O)CSC[C@H](NC(=O)[C@H](C)N)C(=O)N[C@@H](CO)C(=O)N[C@@H](CC(=O)O)C(=O)N[C@@H](CCCNC(=N)N)C(=O)N[C@@H](Cc1ccccc1)C(=O)N[C@@H](CCCNC(=N)N)C(=O)N[C@@H](CC(N)=O)C(=O)N2 (H-ACSDRFRNCPVSESACG-NH2; linker 2-9-16 via TBMB),50
7,CC[C@H](C)[C@@H]1NC(=O)[C@H](CC(N)=O)NC(=O)[C@H](CC(N)=O)NC(=O)[C@H](C(C)C)NC(=O)[C@H](CCCNC(=N)N)NC(=O)[C@@H]2CSCc3cc(cc(c3)CSC[C@@H](C(=O)NCC(N)=O)NC(=O)[C@H](CO)NC1=O)CSC[C@H](NC(=O)[C@H](C)N)C(=O)NCC(=O)NCC(=O)N[C@@H](CC(N)=O)C(=O)N[C@@H](CO)C(=O)N[C@@H](CC(=O)O)C(=O)N[C@@H](CCCNC(=N)N)C(=O)N2 (H-ACGGNSDRCRVNNISCG-NH2; linker 2-9-16 via TBMB),2000
8,CSCC[C@H](NC(=O)[C@H](CC(C)C)NC(=O)[C@H](CC(=O)O)NC(=O)[C@H](CCC(=O)O)NC(=O)[C@H](Cc1ccc(O)cc1)NC(=O)[C@H](CS)NC(=O)[C@H](C)NC(=O)[C@@H](NC(=O)[C@H](CCCN=C(N)N)NC(=O)[C@H](Cc1c[nH]c2ccccc12)NC(=O)[C@@H]1CCCN1C(=O)[C@H](C)NC(=O)[C@H](CS)NC(=O)[C@H](C)N)[C@@H](C)O)C(=O)N[C@@H](Cc1c[nH]c2ccccc12)C(=O)N[C@@H](CS)C(=O)NCC(N)=O (H-ACAPWRTACYEDLMWCG-NH2),5710

# The next compounds have a lower IC50 than those just listed; values first:
row,IC50 [nM],SMILES
1,33,CC[C@H](C)[C@@H]1NC(=O)[C@H](CCC(=O)O)NC(=O)[C@H]([C@@H](C)CC)NC(=O)[C@@H]2CCCN2C(=O)[C@@H]2CSCc3cc(cc(c3)CSC[C@@H](C(=O)NCC(N)=O)NC(=O)[C@@H]3CCCN3C(=O)[C@H](Cc3ccccc3)NC1=O)CSC[C@H](NC(=O)[C@H](C)N)C(=O)N[C@@H](CO)C(=O)N[C@@H]([C@H](C)O)C(=O)N[C@@H](CCC(=O)O)C(=O)N[C@@H](CCCNC(=N)N)C(=O)N[C@@H](CCCNC(=N)N)C(=O)N[C@@H](Cc1ccc(O)cc1)C(=O)N2
2,30,CC(C)C[C@@H]1NC(=O)[C@H]([C@@H](C)O)NC(=O)[C@H](Cc2ccc(O)cc2)NC(=O)[C@@H]2CCCN2C(=O)[C@@H]2CSCc3cc(cc(c3)CSC[C@@H](C(=O)NCC(N)=O)NC(=O)[C@H](CC(=O)O)NC(=O)[C@H](Cc3cnc[nH]3)NC1=O)CSC[C@H](NC(=O)[C@H](C)N)C(=O)N[C@@H](CO)C(=O)N[C@@H](CC(=O)O)C(=O)N[C@@H](CCCNC(=N)N)C(=O)N[C@@H](Cc1ccccc1)C(=O)N[C@@H](CCCNC(=N)N)C(=O)N[C@@H](CC(N)=O)C(=O)N2 (H-ACSDRFRNCPYTLHDCG-NH2; linker 2-9-16 via TBMB)
3,30,CC(C)C[C@@H]1NC(=O)[C@H](Cc2c[nH]c3ccccc23)NC(=O)[C@H](CCC(=O)O)NC(=O)[C@H](CC(=O)O)NC(=O)[C@H](C(C)C)NC(=O)[C@@H]2CCCN2C(=O)[C@@H]2CSCc3cc(cc(c3)CSC[C@@H](C(=O)NCC(N)=O)NC1=O)CSC[C@H](NC(=O)[C@H](C)N)C(=O)N[C@@H](CO)C(=O)N[C@@H](CC(=O)O)C(=O)N[C@@H](CCCNC(=N)N)C(=O)N[C@@H](Cc1ccccc1)C(=O)N[C@@H](CCCNC(=N)N)C(=O)N[C@@H](CC(N)=O)C(=O)N2 (H-ACSDRFRNCPVDEWLCG-NH2; linker 2-9-16 via TBMB)
4,28.6,"CC(C)C[C@@H]1NC(=O)[C@@H]2CCCN2C(=O)[C@@H]2CSCc3cc(cc(c3)CSC[C@@H](C(=O)NCC(N)=O)NC(=O)[C@H](C(C)O)NC(=O)CNC(=O)[C@H](CO)NC(=O)[C@H](Cc3c[nH]c4ccccc34)NC1=O)CSC[C@H](NC(=O)[C@H](C)N)C(=O)N[C@@H](CO)C(=O)N[C@@H](CC(=O)O)C(=O)N[C@@H](CCCNC(=N)N)C(=O)N[C@@H](Cc1ccccc1)C(=O)N[C@@H](CCCNC(=N)N)C(=O)N[C@@H](CC(N)=O)C(=O)N2 (single isomer, unassigned)"
5,20,CC(C)C[C@@H]1NC(=O)[C@H](C)NC(=O)[C@H](CCC(=O)O)NC(=O)[C@H](CC(=O)O)NC(=O)[C@H](C(C)C)NC(=O)[C@@H]2CCCN2C(=O)[C@@H]2CSCc3cc(cc(c3)CSC[C@@H](C(=O)NCC(N)=O)NC1=O)CSC[C@H](NC(=O)[C@H](C)N)C(=O)N[C@@H](CO)C(=O)N[C@@H](CC(=O)O)C(=O)N[C@@H](CCCNC(=N)N)C(=O)N[C@@H](Cc1ccccc1)C(=O)N[C@@H](CCCNC(=N)N)C(=O)N[C@@H](CC(N)=O)C(=O)N2 (H-ACSDRFRNCPVDEALCG-NH2; linker 2-9-16 via TBMB)
